What was measured:
[1] = target: Sodium-dependent serotonin transporter (Homo sapiens, UniProt P31645); experiment: Displacement of [3H]citalopram from SERT
[2] = target: Sodium-dependent noradrenaline transporter (Homo sapiens, UniProt P23975); experiment: Displacement of [3H]nisoxetine from NET
[3] = target: T1, Sodium-dependent dopamine transporter (Homo sapiens, UniProt Q01959); experiment: Displacement of [3H]WIN-35 from DAT
[4] = target: T1, Sodium-dependent dopamine transporter; experiment: Displacement of [3H]WIN-35 from DAT at 1 uM

Sodium-dependent noradrenaline transporter, sequence (P23975 whole entry): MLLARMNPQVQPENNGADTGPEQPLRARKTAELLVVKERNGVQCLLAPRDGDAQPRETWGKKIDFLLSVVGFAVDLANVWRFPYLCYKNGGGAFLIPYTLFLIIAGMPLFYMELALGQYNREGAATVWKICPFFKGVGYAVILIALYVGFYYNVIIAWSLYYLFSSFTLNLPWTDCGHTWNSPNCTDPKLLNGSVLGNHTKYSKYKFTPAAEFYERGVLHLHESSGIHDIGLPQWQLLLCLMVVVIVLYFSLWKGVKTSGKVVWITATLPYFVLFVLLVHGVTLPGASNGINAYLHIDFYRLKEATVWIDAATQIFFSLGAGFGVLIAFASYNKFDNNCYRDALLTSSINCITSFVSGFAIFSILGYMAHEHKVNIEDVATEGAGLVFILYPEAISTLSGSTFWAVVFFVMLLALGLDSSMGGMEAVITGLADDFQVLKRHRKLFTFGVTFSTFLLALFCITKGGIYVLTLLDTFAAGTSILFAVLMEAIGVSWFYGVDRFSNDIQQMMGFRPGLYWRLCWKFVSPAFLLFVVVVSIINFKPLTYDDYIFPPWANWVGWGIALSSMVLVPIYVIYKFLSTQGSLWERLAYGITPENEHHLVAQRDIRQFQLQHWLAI
T1 sequence (Q01959 whole entry): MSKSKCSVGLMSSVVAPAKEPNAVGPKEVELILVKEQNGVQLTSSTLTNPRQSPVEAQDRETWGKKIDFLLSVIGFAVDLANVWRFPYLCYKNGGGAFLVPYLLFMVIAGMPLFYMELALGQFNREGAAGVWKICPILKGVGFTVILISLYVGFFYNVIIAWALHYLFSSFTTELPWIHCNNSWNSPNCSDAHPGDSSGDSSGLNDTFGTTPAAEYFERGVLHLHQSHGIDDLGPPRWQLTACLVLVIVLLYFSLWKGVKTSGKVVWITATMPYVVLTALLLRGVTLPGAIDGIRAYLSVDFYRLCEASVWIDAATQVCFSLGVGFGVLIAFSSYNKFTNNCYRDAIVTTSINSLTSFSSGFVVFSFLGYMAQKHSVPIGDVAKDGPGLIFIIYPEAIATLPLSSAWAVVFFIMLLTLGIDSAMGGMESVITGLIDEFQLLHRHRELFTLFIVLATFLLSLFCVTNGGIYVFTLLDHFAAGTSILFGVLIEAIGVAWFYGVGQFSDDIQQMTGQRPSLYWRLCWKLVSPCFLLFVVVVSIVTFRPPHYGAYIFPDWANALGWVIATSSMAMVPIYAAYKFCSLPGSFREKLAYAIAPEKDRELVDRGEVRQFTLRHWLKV
Sodium-dependent serotonin transporter, sequence (P31645 whole entry): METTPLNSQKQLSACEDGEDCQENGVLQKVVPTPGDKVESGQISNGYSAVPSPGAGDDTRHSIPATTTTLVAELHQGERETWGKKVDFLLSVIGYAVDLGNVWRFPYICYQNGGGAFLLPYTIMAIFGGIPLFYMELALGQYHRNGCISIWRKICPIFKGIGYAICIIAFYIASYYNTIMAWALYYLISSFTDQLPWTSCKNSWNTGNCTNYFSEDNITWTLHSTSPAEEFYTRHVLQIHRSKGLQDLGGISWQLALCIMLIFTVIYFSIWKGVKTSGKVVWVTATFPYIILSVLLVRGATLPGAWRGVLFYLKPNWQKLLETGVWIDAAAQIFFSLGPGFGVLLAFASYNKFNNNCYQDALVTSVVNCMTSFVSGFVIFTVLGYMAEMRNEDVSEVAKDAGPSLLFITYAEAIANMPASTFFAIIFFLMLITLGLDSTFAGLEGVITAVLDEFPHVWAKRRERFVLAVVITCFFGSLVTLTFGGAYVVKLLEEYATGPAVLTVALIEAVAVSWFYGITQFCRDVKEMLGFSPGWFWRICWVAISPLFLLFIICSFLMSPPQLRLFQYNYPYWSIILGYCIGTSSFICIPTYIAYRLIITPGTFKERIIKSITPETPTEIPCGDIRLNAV

SMILES	Ki [1]	Ki [2]	Ki [3]	inhibition [4]
CC(C)(C#N)CN(Cc1ccc(F)cc1C(F)(F)F)C1CCNCC1	4.2 nM	15.9 nM	–	–
COc1ccc(F)cc1CN(CC(C)C)C1CCNCC1	1.4 nM	42.1 nM	–	-2%
FC(F)(F)CN(Cc1ccccc1C(F)(F)F)C1CCNCC1	4.6 nM	33 nM	–	–
Cc1ccc(CN(CC(C)C)C2CCNCC2)cc1	0.99 nM	69 nM	–	–
Cc1ccccc1CN(CC(C)C)C1CCNCC1	1.5 nM	3.3 nM	240 nM	–
CC(C)CN(Cc1cccc(C#N)c1)C1CCNCC1	0.48 nM	690 nM	201 nM	–
CCCN(Cc1ccccc1C(F)(F)F)C1CCNCC1	2.2 nM	6.5 nM	–	–
COc1ccc(CN(CC(C)C)C2CCNCC2)c(OC)c1	2.2 nM	1060 nM	–	1.8%
N#CCCCN(Cc1ccccc1C(F)(F)F)C1CCNCC1	0.58 nM	21 nM	–	–
FC(F)(F)c1ccccc1CN(C1CCCC1)C1CCNCC1	3.6 nM	4.1 nM	–	–
CC(C)(O)CCN(Cc1ccc(F)cc1C(F)(F)F)C1CCNCC1	5 nM	–	–	1.3%
COCCCN(Cc1ccc(F)cc1C(F)(F)F)C1CCNCC1	1.1 nM	5.4 nM	–	-7%
COCCCN(Cc1ccccc1C(F)(F)F)C1CCNCC1	2.2 nM	6.8 nM	–	-8%
Fc1ccc(CN(CC2CC2)C2CCNCC2)c(C(F)(F)F)c1 [listing 1 of 2 here]	0.4 nM	6.5 nM	–	–
CCCCN(Cc1ccccc1C(F)(F)F)C1CCNCC1	1.5 nM	5.1 nM	–	–
CCOCCN(Cc1ccc(F)cc1C(F)(F)F)C1CCNCC1	2.8 nM	9.6 nM	–	-3%
CC(C)CN(Cc1cc(Cl)ccc1Cl)C1CCNCC1	2.1 nM	5.5 nM	–	–
Fc1ccc(CN(CC2CC2)C2CCNCC2)c(C(F)(F)F)c1 [listing 2 of 2 here]	0.8 nM	6.1 nM	–	–
CC(C)CN(Cc1ccc(C#N)cc1)C1CCNCC1	0.28 nM	190 nM	–	–
CC(C)(C#N)CCN(Cc1ccc(F)cc1C(F)(F)F)C1CCNCC1	0.7 nM	6.2 nM	–	–

SMILES	Ki [1]	Ki [2]	Ki [3]	inhibition [4]
CC(C)(O)CN(Cc1ccc(F)cc1C(F)(F)F)C1CCNCC1	4 nM	4.2 nM	–	-8%
FC(F)(F)OCCN(Cc1ccccc1C(F)(F)F)C1CCNCC1	17 nM	51 nM	–	-8%
CCCCN(Cc1ccc(F)cc1C(F)(F)F)C1CCNCC1	1.3 nM	8.3 nM	–	–
Fc1ccc(CN(CC2CCC2)C2CCNCC2)c(C(F)(F)F)c1	2.5 nM	3.1 nM	–	–
CSc1ccccc1CN(CC(C)C)C1CCNCC1	1.1 nM	3.3 nM	–	–
CC(C)CN(Cc1ccccc1Cl)C1CCNCC1	1.6 nM	1.4 nM	83 nM	–
OCCN(Cc1ccc(F)cc1C(F)(F)F)C1CCNCC1	3.1 nM	95.9 nM	–	-7%
CC(C)(C)CN(Cc1ccccc1C(F)(F)F)C1CCNCC1	4.3 nM	2.7 nM	160 nM	–
CCC(CC)N(Cc1ccccc1C(F)(F)F)C1CCNCC1	6.8 nM	86 nM	–	–
COCCN(Cc1ccccc1C(F)(F)F)C1CCNCC1	2.5 nM	8.3 nM	–	4%
N#CCCN(Cc1ccc(F)cc1C(F)(F)F)C1CCNCC1	0.4 nM	13.3 nM	–	-4%
CC(C)CN(Cc1ccc(Cl)cc1Cl)C1CCNCC1	0.96 nM	2 nM	230 nM	–
CC(C)CN(Cc1ccccc1)C1CCNCC1	8.4 nM	91 nM	–	–
N#CCCCN(Cc1ccc(F)cc1C(F)(F)F)C1CCNCC1	0.4 nM	13.3 nM	–	10%
FC(F)(F)CCN(Cc1ccccc1C(F)(F)F)C1CCNCC1	2.8 nM	9.8 nM	–	–
CC(C)CN(Cc1ccccc1C#N)C1CCNCC1	1.2 nM	42 nM	–	–
Cc1ccc(CN(CC(C)C)C2CCNCC2)c(C)c1	0.39 nM	4.8 nM	–	–
COc1ccccc1CN(CC(C)C)C1CCNCC1	15 nM	145 nM	–	4%
FC(F)(F)c1ccccc1CN(CC1CC1)C1CCNCC1	1.5 nM	6 nM	–	–
CN(Cc1ccccc1C(F)(F)F)C1CCNCC1	–	–	–	3%

Results, then the molecule that gave them:

Ki [1]	Ki [2]	Ki [3]	inhibition [4]	SMILES
9.6 nM	175 nM	–	–	CC(C)CN(Cc1cc(C(F)(F)F)ccc1Cl)C1CCNCC1
0.3 nM	1.8 nM	190 nM	–	CC(C)CN(Cc1ccc(F)cc1C(F)(F)F)C1CCNCC1
0.26 nM	255 nM	–	–	CC(C)CN(Cc1cccc(C(F)(F)F)c1)C1CCNCC1
2.2 nM	150 nM	98 nM	–	Cc1cccc(CN(CC(C)C)C2CCNCC2)c1
3.1 nM	20 nM	580 nM	–	CC(C)CN(Cc1ccc(F)cc1F)C1CCNCC1
5.6 nM	26 nM	–	–	CC(C)N(Cc1ccccc1C(F)(F)F)C1CCNCC1
1.9 nM	78 nM	200 nM	–	CC(C)CN(Cc1ccc(F)cc1)C1CCNCC1
8 nM	61 nM	–	-2%	CCN(Cc1ccccc1C(F)(F)F)C1CCNCC1
–	43 nM	86.5 nM	–	CC(C)CN(Cc1cccc(F)c1)C1CCNCC1
7.9 nM	3.4 nM	–	–	CC(C)CN(Cc1cc(F)ccc1C(F)(F)F)C1CCNCC1
3 nM	9.7 nM	–	5%	CC(C)OCCN(Cc1ccc(F)cc1C(F)(F)F)C1CCNCC1
0.07 nM	300 nM	–	–	CC(C)CN(Cc1ccc(C(F)(F)F)cc1)C1CCNCC1
2.2 nM	7.1 nM	–	–	CC(C)CN(Cc1ccccc1OC(F)(F)F)C1CCNCC1
6.9 nM	6.1 nM	–	–	CCC(CC)CN(Cc1ccccc1C(F)(F)F)C1CCNCC1
0.48 nM	420 nM	–	–	CC(C)CN(Cc1cccc(C(F)(F)F)c1Cl)C1CCNCC1
5.8 nM	2.2 nM	120 nM	–	CC(C)CN(Cc1ccc(C(F)(F)F)cc1F)C1CCNCC1
–	15 nM	330 nM	–	CC(C)CN(Cc1ccccc1F)C1CCNCC1
4.1 nM	6 nM	–	–	CC(C)CN(Cc1c(F)cccc1C(F)(F)F)C1CCNCC1
0.8 nM	3.6 nM	–	–	CCCN(Cc1ccc(F)cc1C(F)(F)F)C1CCNCC1
1.4 nM	3.2 nM	210 nM	–	CC(C)CN(Cc1ccccc1C(F)(F)F)C1CCNCC1

Source: ChEMBL document CHEMBL1147706, “N-Alkyl-N-arylmethylpiperidin-4-amines: novel dual inhibitors of serotonin and norepinephrine reuptake” (Bioorg Med Chem Lett, 2006)
